# Active and inactive are the calls of the source. The calls are words filed in the database; no cut-off is given here.
# Key:
# Osteoclast [1] = assay: Anti-osteoclastogenesis in RANKL induced C57/BL6 mouse osteoclast assessed as formation of mature osteoclast measured at 1 uM by TRAP-staining based microscopic analysis relative to control; format: functional
# Mus musculus = assay: Anti-osteoporosis activity in OVX induced osteoporosis C57BL/6 mouse model assessed as prevention of bone loss in femur at 20 mg/kg, ip daily for 4 weeks by micro computed tomographic analysis; format: functional, organism-based
# BMDM [2] = assay: Anti-osteoclastogenesis in RANKL/M-CSF induced C57/BL6 mouse osteogenic differentiated BMDM assessed as decrease in pit area at 10 uM for 6 days by measuring fluorescence intensity using fluorescein amine labelled calcium plate method; format: functional, cell-based; details: time 6.0 day
# BMDM [3] = assay: Anti-osteoclastogenesis in RANKL/M-CSF induced C57/BL6 mouse osteogenic differentiated BMDM assessed as repression of F-actin ring at 10 uM spectra max i3x fluorescence plate reader based microscopic analysis; format: functional, cell-based
# BMDM [4] = assay: Anti-osteoclastogenesis in RANKL/M-CSF induced C57/BL6 mouse osteogenic differentiated BMDM assessed as suppression of mRNA level of osteoclastogenesis related Mmp9 gene expression measured for 0 to 4 days by qRT-PCR analysis; format: functional, cell-based; details: time 0-4 day
# BMDM [5] = assay: Cytotoxicity in RANKL induced C57/BL6 mouse BMDM incubated at <4 uM for 48 hrs; format: functional, cell-based
# Osteoclast [6] = assay: Anti-osteoclastogenesis in RANKL induced C57/BL6 mouse osteoclast assessed as blocking of formation of multinucleated mature osteoclast incubated for 48 hrs; format: functional, cell-based; details: dose 62.5-4000 nM
# BMDM [7] = assay: Anti-osteoclastogenesis in RANKL/M-CSF induced C57/BL6 mouse osteogenic differentiated BMDM assessed as suppression of mRNA level of osteoclastogenesis related Atp6v0d2 gene expression measured for 0 to 4 days by qRT-PCR analysis; format: functional, cell-based; details: time 0-4 day
# BMDM [8] = assay: Anti-osteoclastogenesis in RANKL induced C57/BL6 mouse osteogenic differentiated BMDM assessed as inhibition of protease Ctsk-protein expression measured at 1 uM for 0 to 4 days by Western blotting analysis; format: functional, cell-based; details: time 0-4 day
# BMDM [9] = assay: Anti-osteoclastogenesis in RANKL/M-CSF induced C57/BL6 mouse osteogenic differentiated BMDM assessed as suppression of mRNA level of osteoclastogenesis related Ctsk-gene expression measured for 0 to 4 days by qRT-PCR analysis; format: functional, cell-based; details: time 0-4 day
# BMDM [10] = assay: Anti-osteoclastogenesis in RANKL/M-CSF induced C57/BL6 mouse osteogenic differentiated BMDM assessed as expression of GSK3beta in NAFTc1 translocation by immunofluorescence microscopy; format: functional, cell-based
# Calvarial osteoblast = assay: Effect on osteogenesis in BMP2 stimulated mouse osteogenic differentiated calvaria primary osteoblast assessed as chane in percentage of ALP positive density at 0.125 to 16 uM with replacement of compound containing media daily for 9 days by ALP staining analysis; format: functional, cell-based; details: dose 0.125-16 µM, time 9.0 day
# BMDM [11] = assay: Anti-osteoclastogenesis in RANKL/M-CSF induced C57/BL6 mouse osteogenic differentiated BMDM assessed as decrease in pit area at 0.5 to 2 uM for 6 days by measuring fluorescence intensity using fluorescein amine labelled calcium plate method; format: functional, cell-based; details: dose 0.5-2 µM, time 6.0 day
# [12] = Toxicity in OVX induced osteoporosis C57BL/6 mouse model assessed as reduction of body weight at 20 mg/kg, ip daily for 4 weeks measured every week; format: organism-based; details: in vivo, 672 h
# BMDM [13] = assay: Anti-osteoclastogenesis in RANKL/M-CSF induced C57/BL6 mouse osteogenic differentiated BMDM assessed as repression of F-actin ring at 500 to 2000 nM spectra max i3x fluorescence plate reader based microscopic analysis; format: functional, cell-based; details: dose 500-2000 nM
# BMDM [14] = assay: Anti-osteoclastogenesis in RANKL/M-CSF induced C57/BL6 mouse osteogenic differentiated BMDM assessed as suppression of mRNA level of osteoclastogenesis related Nfatc1 gene expression measured for 0 to 4 days by qRT-PCR analysis; format: functional, cell-based; details: time 0-4 day
# BMDM [15] = assay: Anti-osteoclastogenesis in RANKL induced C57/BL6 mouse osteogenic differentiated BMDM assessed as increased NAFTc1 protein level in cytoplasm measured for 48 hrs by Western blotting analysis; format: functional, cell-based
# BMDM [16] = assay: Cytotoxicity in RANKL induced C57/BL6 mouse mouse osteogenic differentiated BMDM assessed as blocking of formation of multinucleated mature osteoclast incubated at 4 uM for 48 hrs; format: functional, cell-based
# BMDM [17] = assay: Anti-osteoclastogenesis in RANKL induced C57/BL6 mouse osteogenic differentiated BMDM assessed as inhibition of NFATc1 protein expression measured at 1 uM for 0 to 4 days by Western blotting analysis; format: functional, cell-based; details: time 0-4 day
# BMDM [18] = assay: Anti-osteoclastogenesis in RANKL/M-CSF induced C57/BL6 mouse osteogenic differentiated BMDM assessed as expression of CRM1 in NAFTc1 translocation by immunofluorescence microscopy; format: functional, cell-based
# BMDM [19] = assay: Anti-osteoclastogenesis in RANKL induced C57/BL6 mouse osteogenic differentiated BMDM assessed as decreased NAFTc1 protein level in nucleus measured for 48 hrs by Western blotting analysis; format: functional, cell-based
# BMDM [20] = assay: Anti-osteoclastogenesis in RANKL induced C57/BL6 mouse osteogenic differentiated BMDM assessed as inhibition of c-src protein expression measured at 1 uM for 0 to 4 days by Western blotting analysis; format: functional, cell-based; details: time 0-4 day
# Osteoclast [21] = assay: Anti-osteoclastogenesis in human RANKL/human M-CSF induced human iPSC-derived macrophage assessed as inhibition of mature osteoclast differentiation measured for 10 days by TRAP staining assay; format: functional, cell-based; details: time 10.0 day
# Osteoclast [22] = assay: Anti-osteoclastogenesis in RANKL induced C57/BL6 mouse osteoclast assessed as inhibition of differentiation of bone marrow derived macrophage measured by TRAP-staining based microscopic analysis; format: functional, cell-based
# [23] = molecular target: T1, Nuclear factor of activated T-cells, cytoplasmic 1 (Mus musculus) (UniProt O88942); assay: Inhibition of pronase mediated NFATc1 degradation in mouse osteogenic differentiated BMDM multi nuclear mature osteoclast at 50 uM for 1 hr by drug affinity responsive target stability analysis; format: cell-based
# T1 sequence (whole entry): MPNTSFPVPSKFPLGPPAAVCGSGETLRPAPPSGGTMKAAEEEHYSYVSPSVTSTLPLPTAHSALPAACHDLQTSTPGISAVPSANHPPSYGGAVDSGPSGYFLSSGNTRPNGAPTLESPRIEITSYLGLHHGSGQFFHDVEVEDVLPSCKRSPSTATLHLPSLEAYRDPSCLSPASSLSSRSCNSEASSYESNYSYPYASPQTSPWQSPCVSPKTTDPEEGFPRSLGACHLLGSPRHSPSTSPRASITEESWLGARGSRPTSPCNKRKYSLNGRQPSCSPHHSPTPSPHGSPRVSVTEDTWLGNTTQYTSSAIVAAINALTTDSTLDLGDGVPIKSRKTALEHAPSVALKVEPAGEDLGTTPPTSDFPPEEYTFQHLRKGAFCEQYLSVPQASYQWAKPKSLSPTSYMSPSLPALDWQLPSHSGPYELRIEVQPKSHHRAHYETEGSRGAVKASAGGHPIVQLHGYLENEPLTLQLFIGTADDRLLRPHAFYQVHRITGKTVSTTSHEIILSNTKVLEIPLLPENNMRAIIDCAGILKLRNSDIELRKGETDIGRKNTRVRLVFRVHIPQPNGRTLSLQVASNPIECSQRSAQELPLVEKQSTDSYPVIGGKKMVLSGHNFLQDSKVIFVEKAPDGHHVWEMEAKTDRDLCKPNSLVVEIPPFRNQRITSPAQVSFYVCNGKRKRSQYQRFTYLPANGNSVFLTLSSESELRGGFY
# BMDM [24] = assay: Anti-osteoclastogenesis in RANKL/M-CSF induced C57/BL6 mouse osteogenic differentiated BMDM assessed as suppression of mRNA level of osteoclastogenesis related Dc-stamp gene expression measured for 0 to 4 days by qRT-PCR analysis; format: functional, cell-based; details: time 0-4 day
# BMDM [25] = assay: Anti-osteoclastogenesis in RANKL/M-CSF induced C57/BL6 mouse osteogenic differentiated BMDM assessed as expression of GAPDH in NAFTc1 translocation by immunofluorescence microscopy; format: functional, cell-based
# BMDM [26] = assay: Anti-osteoclastogenesis in RANKL induced C57/BL6 mouse osteogenic differentiated BMDM assessed as inhibition of c-fos protein expression measured at 1 uM for 0 to 4 days by Western blotting analysis; format: functional, cell-based; details: time 0-4 day
# BMDM [27] = assay: Anti-osteoclastogenesis in RANKL induced C57/BL6 mouse osteogenic differentiated BMDM assessed as inhibition of N-FkappaB protein expression measured at 1 uM for 0 to 4 days by Western blotting analysis; format: functional, cell-based; details: time 0-4 day
# BMDM [28] = assay: Anti-osteoclastogenesis in RANKL/M-CSF induced C57/BL6 mouse osteogenic differentiated BMDM assessed as expression of calcineurin A in NAFTc1 translocation by immunofluorescence microscopy; format: functional, cell-based
# BMDM [29] = assay: Anti-osteoclastogenesis in RANKL/M-CSF induced C57/BL6 mouse osteogenic differentiated BMDM assessed as suppression of mRNA level of osteoclastogenesis related Acp5 gene expression measured for 0 to 4 days by qRT-PCR analysis; format: functional, cell-based; details: time 0-4 day
# BMDM [30] = assay: Anti-osteoclastogenesis in RANKL induced C57/BL6 mouse osteogenic differentiated BMDM assessed as inhibition of TRAF6 protein expression measured at 1 uM for 0 to 4 days by Western blotting analysis; format: functional, cell-based; details: time 0-4 day
smiles,measurement,setting,value
CS(=O)(=O)N(CC(=O)Nc1ccccc1Sc1ccccc1)c1cccc(C(=O)Oc2cccc([N+](=O)[O-])c2)c1,inhibition at 1 µM,Osteoclast [1],4.74%
CC(=O)c1cccc(N(CC(=O)Nc2ccccc2Sc2ccccc2)S(C)(=O)=O)c1,inhibition at 1 µM,Osteoclast [1],6.09%
same,Activity,Mus musculus,inactive
same,Activity,BMDM [2],Active
same,Activity,BMDM [3],Active
CS(=O)(=O)N(CC(=O)Nc1ccccc1Sc1ccccc1)c1cccc(C(=O)Oc2ccc([N+](=O)[O-])cc2)c1,inhibition at 1 µM,Osteoclast [1],15.3%
COc1ccc(OC(=O)c2cccc(N(CC(=O)Nc3ccccc3Sc3ccccc3)S(C)(=O)=O)c2)cc1,inhibition at 1 µM,Osteoclast [1],25.7%
CS(=O)(=O)N(CC(=O)Nc1ccccc1Sc1ccccc1)c1cccc(C(=O)Oc2ccccc2C#N)c1,inhibition at 1 µM,Osteoclast [1],11.1%
COC(=O)c1cccc(NCC(=O)Nc2ccccc2Sc2ccccc2)c1,Activity,BMDM [4],Active
same,Activity,BMDM [5],inactive
same,Activity,Osteoclast [6],Dose-Dependent Effect
same,inhibition at 1 µM,Osteoclast [1],74.5%
same,Activity,BMDM [7],Active
same,Activity,BMDM [8],Active
same,Activity,Mus musculus,Active
same,Activity,BMDM [9],Active
same,Activity,BMDM [10],inactive
same,Activity,Calvarial osteoblast,inactive
same,Activity,BMDM [11],Dose-Dependent Effect
same,Activity,[12],Non-Toxic
same,Activity,BMDM [13],Active
same,Activity,BMDM [14],Active
same,Activity,BMDM [15],Active
same,Activity,BMDM [16],Active
same,Activity,BMDM [17],inactive
same,Activity,BMDM [18],inactive
same,Activity,BMDM [19],Active
same,Activity,BMDM [20],inactive
same,Activity,Osteoclast [21],Active
same,IC50,Osteoclast [22],323 nM
same,inhibition,[23],Active
same,Activity,BMDM [24],Active
same,Activity,BMDM [25],inactive
same,Activity,BMDM [26],inactive
same,Activity,BMDM [27],inactive
same,Activity,BMDM [28],inactive
same,Activity,BMDM [29],Active
same,Activity,BMDM [30],inactive
CC(C)(C)c1ccc(OC(=O)c2cccc(N(CC(=O)Nc3ccccc3Sc3ccccc3)S(C)(=O)=O)c2)cc1,inhibition at 1 µM,Osteoclast [1],4.07%
COc1ccc(OC(=O)c2cccc(NCC(=O)Nc3ccccc3Sc3ccccc3)c2)cc1,inhibition at 1 µM,Osteoclast [1],50.9%
COc1ccccc1OC(=O)c1cccc(NCC(=O)Nc2ccccc2Sc2ccccc2)c1,inhibition at 1 µM,Osteoclast [1],52.3%
CS(=O)(=O)N(CC(=O)Nc1ccccc1Sc1ccccc1)c1cccc(C(=O)Oc2cccc3ccccc23)c1,inhibition at 1 µM,Osteoclast [1],9.03%
CS(=O)(=O)N(CC(=O)Nc1ccccc1Sc1ccccc1)c1cccc(C(=O)O)c1,inhibition at 1 µM,Osteoclast [1],0.11%
O=C(CNc1cccc(C(=O)Oc2ccc(Cl)cc2)c1)Nc1ccccc1Sc1ccccc1,inhibition at 1 µM,Osteoclast [1],43.2%
Cc1ccccc1OC(=O)c1cccc(N(CC(=O)Nc2ccccc2Sc2ccccc2)S(C)(=O)=O)c1,inhibition at 1 µM,Osteoclast [1],15.3%
Cc1ccc(OC(=O)c2cccc(N(CC(=O)Nc3ccccc3Sc3ccccc3)S(C)(=O)=O)c2)cc1,inhibition at 1 µM,Osteoclast [1],14.2%
Cc1cccc(OC(=O)c2cccc(N(CC(=O)Nc3ccccc3Sc3ccccc3)S(C)(=O)=O)c2)c1,inhibition at 1 µM,Osteoclast [1],19%
COC(=O)c1cccc(N(CC(=O)Nc2ccccc2Sc2ccccc2)S(C)(=O)=O)c1,inhibition at 1 µM,Osteoclast [1],8.13%
CS(=O)(=O)N(CC(=O)Nc1ccccc1Sc1ccccc1)c1cccc(Cl)c1,inhibition at 1 µM,Osteoclast [1],16.2%
NCCCC(O)(P(=O)(O)O)P(=O)(O)O [ALENDRONIC ACID],inhibition at 1 µM,Osteoclast [1],30.9%
CS(=O)(=O)N(CC(=O)Nc1ccccc1Sc1ccccc1)c1cccc(C(=O)Oc2ccc(Cl)cc2)c1,inhibition at 1 µM,Osteoclast [1],23.9%
COc1ccccc1OC(=O)c1cccc(N(CC(=O)Nc2ccccc2Sc2ccccc2)S(C)(=O)=O)c1,inhibition at 1 µM,Osteoclast [1],20.3%
CS(=O)(=O)N(CC(=O)Nc1ccccc1Sc1ccccc1)c1cccc(C(=O)Oc2ccc3ccccc3c2)c1,inhibition at 1 µM,Osteoclast [1],11.3%

# — ChEMBL document CHEMBL5338768, “Discovery of PMSA Derivative 11 as a Novel Lead Compound for Therapeutic Treatment of Osteoporosis In Vitro and In Vivo” (J Med Chem, 2023)
